# Experimental data from patent publication US20160031859A1, “Alkyl [(S)-1-((S)-2--buta-1,3-diynyl)-phenyl]-1H-imidazol-2-yl}-pyrrolidine-1-carbonyl)-2-methyl-propyl]-carbamate naphthalene-1,5-disulfonate, pharmaceutical composition, medicament, method for treatment of viral diseases” (priority 2013, published 2016).
# What was measured:
# genotype 2a HCV = assay: HCV replicon inhibitory activity, genotype 2a; assay type: cell-based; conditions: Hepatitis C virus; HCV genotype 2a, FBS; read-out: gT2a FBS EC50
# [1] = Investigation of storage of naphthalene-1,5-disulfonates (amount of admixtures, UV 220 nm); assay type: physicochemical; conditions: for Max admixture / Sum of admixtures: refrigerator, 4.7° C.
# Description: Investigation of storage of naphthalene-1,5-disulfonates of the general formula 1. All samples were stored in glass vials sealed with rubber cork and aluminum caps, in a refrigerator at a temperature of about ˜4.7 ° C. The amount of admixtures was determined by method of internal normalization, detection was carried out using UV detector at 220 nm. Below are given the test results for compound 1.1 showing their stability at temperature 4.7° C.
# genotype 1a HCV = assay: HCV replicon inhibitory activity, genotype 1a; assay type: cell-based; conditions: Hepatitis C virus; HCV genotype 1a, FBS; read-out: gT1a FBS EC50
# [2] = system: subgenomic RNA-replicon HCV (genotype 1b, clon Con1); assay: HCV replicon immunoenzymatic assay in Huh7 cells, genotype 1b; assay type: cell-based; conditions: Hepatitis C virus, Huh-7, read-out: gT1b FBS EC50
# Description: Determination of antiviral activity of the compounds of the general formula 1 (inhibiting ability of NS5A protein).
# Inhibiting ability of compounds of formula 1 of NS5A protein was determined in the human hepatoma cell line Huh7, comprising subgenomic RNA-replicon HCV (genotype 1b, don Con1). A version of immumoenzymatic assay (IEA) on viral protein NS5A in 96-well plate was used as an experimental method. Cytotoxicity of the compounds was estimated in parallel regime.
# Cells Huh7 were seeded in 96-well plate (7.5×10^3 cells to each well in 100 μl of culture medium). Solutions of the tested compounds in DMEM medium {DMEM 1×; Source: Cellgro; Catalogue: 10-013-CV} were prepared immediately before use. Eleven serial three fold dilutions with variation of concentrations from 20 nM to 0.2 pM were prepared. In 4 hours after seeding, serial dilutions of the compounds were added to the cells (100 μl to each well). Final concentration of tested compounds was varied from 10 nM to 0.1 pM, and DMSO—0.5%. If it was necessary, higher concentrations of the disclosed azoles were investigated. Each dilution of the compound was tested on two identical wells. […] The reaction was arrested by the addition of 2N H2SO4 in amount of 100 μl/well, and optical density (wavelength 490 nm) was measured by means of multiscan plate reader Victor3 V 1420 (Perkin Elmer). […]
compound,measurement,setting,value
"COC(=O)N[C@H](C(=O)N1CCC[C@H]1c1ncc(C#CC#Cc2ccc(-c3cnc([C@@H]4CCCN4C(=O)[C@@H](NC(=O)OC)C(C)C)[nH]3)cc2)[nH]1)C(C)C [Compound 1.1, methyl [(S)-1-((S)-2-{5-[4-(4-{2-[(S)-1-((S)-2-methoxycarbonylamino-3-methyl-butyryl)-pyrrolidin-2-yl]-3H-imidazol-4-yl}-buta-1,3-diynyl)-phenyl]-1H-imidazol-2-yl}-pyrrolidine-1-carbonyl)-2-methylpropyl]-carbamate naphthalene-1,5-disulfonate]",EC50,genotype 2a HCV,< 1 nM
same,Max admixture,[1]; 1 week storage,0.348%
same,Sum of admixtures,[1]; 1 week storage,1.369%
same,Max admixture,[1]; 4 weeks storage,0.341%
same,Sum of admixtures,[1]; 4 weeks storage,1.506%
same,Max admixture,[1]; 20 weeks storage,0.298%
same,Sum of admixtures,[1]; 20 weeks storage,1.493%
same,Max admixture,[1]; before the test,0.342%
same,Sum of admixtures,[1]; before the test,1.312%
same,"storage stability, in words",[1]; temperature 4.7° C.,stability
same,EC50,genotype 1a HCV,< 1 nM
same,EC50,[2],< 1 nM
